PubChem BioAssay (NCI)
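Cultured in 96-well plates, cells were exposed to test compound for 48 hours across five concentrations. TGI marks complete inhibition of growth.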

What was measured:
Test in all cases: NCI tumour cell line growth inhibition, 48 h
[1] = tested on: KM20L2 colon
[2] = tested on: SR leukemia
[3] = tested on: NCI-H23 lung
[4] = tested on: SK-MEL-28 melanoma
[5] = tested on: UACC-62 melanoma
[6] = tested on: SF-295 CNS
[7] = tested on: SK-OV-3 ovarian
[8] = tested on: U251 CNS
[9] = tested on: RXF 393 renal
[10] = tested on: RXF-631 renal
[11] = tested on: TK-10 renal
[12] = tested on: MOLT-4 leukemia
[13] = tested on: HT29 colon
[14] = tested on: M14 melanoma
[15] = tested on: KM12 colon
[16] = tested on: M19-MEL melanoma
[17] = tested on: HL-60(TB) leukemia
[18] = tested on: A498 renal
[19] = tested on: OVCAR-8 ovarian
[20] = tested on: A549 NSCLC
[21] = tested on: OVCAR-5 ovarian
[22] = tested on: SNB-78 CNS
[23] = tested on: NCI-H226 lung
[24] = tested on: HOP-62 NSCLC
[25] = tested on: NCI-H460 lung
[26] = tested on: NCI-H522 lung
[27] = tested on: UACC-257 melanoma
[28] = tested on: HOP-92 NSCLC
[29] = tested on: IGROV1 ovarian
[30] = tested on: UO-31 renal
[31] = tested on: SNB-19 CNS
[32] = tested on: CCRF-CEM leukemia
[33] = tested on: HCT-116 colon
[34] = tested on: DLD-1 colon
[35] = tested on: K-562 leukemia
[36] = tested on: DMS 114 small cell lung
[37] = tested on: CAKI-1 renal
[38] = tested on: HCT-15 colon
[39] = tested on: COLO 205 colon
[40] = tested on: P388/ADR leukemia
[41] = tested on: HOP-18 NSCLC
[42] = tested on: DMS 273 small cell lung
[43] = tested on: SF-539 CNS
[44] = tested on: P388 leukemia
[45] = tested on: EKVX NSCLC
[46] = tested on: SK-MEL-5 melanoma
[47] = tested on: LOX IMVI melanoma
[48] = tested on: SN12C renal
[49] = tested on: SF-268 CNS
[50] = tested on: SW-620 colon
[51] = tested on: SNB-75 CNS
[52] = tested on: HCC-2998 colon
[53] = tested on: MCF7 breast
[54] = tested on: NCI/ADR-RES ovarian
[55] = tested on: SK-MEL-2 melanoma
[56] = tested on: OVCAR-4 ovarian
[57] = tested on: OVCAR-3 ovarian
[58] = tested on: RPMI-8226 leukemia
[59] = tested on: SN12K1 renal
[60] = tested on: MALME-3M melanoma
[61] = tested on: 786-0 renal
[62] = tested on: LXFL 529 NSCLC
[63] = tested on: XF 498 CNS
[64] = tested on: ACHN renal

Measured: TGI

CCNC(CCCC(NCC)P(=O)(O)O)P(=O)(O)O (stereo not given)
> 100 µM: [1] | [2] | [3] | [4] | [5] | [6] | [7] | [8] | [9] | [10] | [11] | [12] | [13] | [14] | [15] | [16] | [17] | [18] | [19] | [20] | [21] | [22] | [23] | [24] | [25] | [26] | [27] | [28] | [29] | [30] | [31] | [32] | [33]

O=C1NC(=O)C2(CCc3ccc(N(CCCl)CCCl)cc32)N1 (stereo not given)
16 µM: [42]
43.4 µM: [55]
> 47.9 µM: [37]
23.8 µM: [25]
26.2 µM: [3]
34.6 µM: [29]
61.4 µM: [53]
9.75 µM: [17]
73.5 µM: [49]
26.6 µM: [46]
15.8 µM: [5]
22.2 µM: [43]
> 84.1 µM: [15]
48 µM: [30]
64.4 µM: [41]
> 100 µM: [35] | [48] | [22]
45.2 µM: [27]
> 84.7 µM: [31]
50.2 µM: [21]
36.2 µM: [19]
36.7 µM: [40]
34.1 µM: [52]
> 79.7 µM: [32]
42.8 µM: [1]
> 81.8 µM: [34]
99.2 µM: [58]
22.5 µM: [9]
26.5 µM: [47]
39.7 µM: [28]
26.3 µM: [51]
> 61.5 µM: [6]
37.1 µM: [59]
16.4 µM: [45]
38.1 µM: [4]
26 µM: [36]
31.7 µM: [33]
> 65 µM: [20]
17.5 µM: [39]
49.8 µM: [12]
61.9 µM: [50]
47 µM: [7]
15.5 µM: [44]
40.6 µM: [54]
49 µM: [38]
33.1 µM: [18]
59.3 µM: [13]
20.3 µM: [26]
21.7 µM: [23]
33 µM: [8]
41.4 µM: [56] | [57]
39.5 µM: [16]
35.5 µM: [24]

Cc1ccc(NC(=O)CC2C(=O)Nc3ccccc3S2(=O)=O)cc1C (stereo not given)
not listed: [7] | [15] | [24] | [39] | [40] | [41] | [44] | [49] | [53] | [54] | [59]
> 100 µM: all other assays above

NC(C(=O)O)c1ccc(C(=O)O)cc1 (stereo not given)
not listed: [18] | [28] | [33] | [40] | [41] | [42] | [44] | [53] | [54] | [59]
> 100 µM: all other assays above
